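Tested at 5 concentrations; 48 h exposure; 96-well plates; endpoints linearly interpolated, else capped at highest concentration. Here, GI50 denotes the concentration required for 50% inhibition of growth. At the TGI there is no net growth.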
How the values were obtained:
Test in all cases: NCI tumour cell line growth inhibition, 48 h
UO-31 renal = test system: UO-31 renal
HOP-92 NSCLC = test system: HOP-92 NSCLC
EKVX NSCLC = test system: EKVX NSCLC
SK-MEL-5 melanoma = test system: SK-MEL-5 melanoma
MOLT-4 leukemia = test system: MOLT-4 leukemia
TK-10 renal = test system: TK-10 renal
MDA-MB-435 = test system: MDA-MB-435
SR leukemia = test system: SR leukemia
NCI-H226 lung = test system: NCI-H226 lung
RXF 393 renal = test system: RXF 393 renal

| Structure (SMILES) | GI50 (UO-31 renal) | TGI (UO-31 renal) | GI50 (HOP-92 NSCLC) | TGI (HOP-92 NSCLC) | GI50 (EKVX NSCLC) | TGI (EKVX NSCLC) | GI50 (SK-MEL-5 melanoma) | TGI (SK-MEL-5 melanoma) | GI50 (MOLT-4 leukemia) | TGI (MOLT-4 leukemia) | GI50 (TK-10 renal) | TGI (TK-10 renal) | GI50 (MDA-MB-435) | TGI (MDA-MB-435) | GI50 (SR leukemia) | TGI (SR leukemia) | GI50 (NCI-H226 lung) | TGI (NCI-H226 lung) | TGI (RXF 393 renal) | GI50 (RXF 393 renal) |
| --- | --- | --- | --- | --- | --- | --- | --- | --- | --- | --- | --- | --- | --- | --- | --- | --- | --- | --- | --- | --- |
| C=CCNc1cccc2c1C(=O)c1ccccc1C2(O)CC=C (configuration not stated) | 27.7 µM | > 100 µM | 27.4 µM | 55.4 µM | 31.8 µM | > 100 µM | 16 µM | 30.2 µM | 41.8 µM | > 100 µM | 25.2 µM | 57.8 µM | 24.6 µM | 59 µM | 36.8 µM | > 100 µM | 20.2 µM | 49.2 µM | – | – |
| COC(=O)C(=O)C(C#N)c1ccc(Cl)c(Cl)c1 (configuration not stated) | – | > 100 µM | – | > 100 µM | – | > 100 µM | – | > 100 µM | – | > 100 µM | – | > 100 µM | – | – | – | > 100 µM | – | > 100 µM | – | – |
| O=c1c2cccnc2ncn1CCCN1CCOCC1 | – | > 100 µM | – | > 100 µM | – | > 100 µM | – | > 100 µM | – | – | – | > 100 µM | – | – | – | > 100 µM | – | > 100 µM | > 100 µM | – |
| Cc1cccc(N2C(=O)C(=O)C(c3nc4ccccc4s3)C(=O)C2=O)c1C | – | > 100 µM | – | > 100 µM | – | > 100 µM | – | > 100 µM | – | > 100 µM | – | > 100 µM | – | – | – | > 100 µM | – | > 100 µM | – | – |
| O=C1CCC(=O)C12CCc1cccc(O)c12 | – | > 100 µM | – | > 100 µM | – | > 100 µM | – | – | – | – | – | > 100 µM | – | – | – | – | – | – | > 100 µM | – |
| Cc1nc2ccc(NCCN(C)C)c3c(=O)c4cc(O)ccc4n1c23 | – | 9.14 µM | – | 6.96 µM | – | – | – | 10.5 µM | – | 0.904 µM | – | 12.5 µM | – | 13.7 µM | – | 0.248 µM | – | 1.7 µM | – | – |
| COc1ccc(S(=O)(=O)N/N=C(\C)CN2C(=O)c3ccccc3C2=O)cc1 | – | > 100 µM | – | – | – | > 100 µM | – | > 100 µM | – | > 100 µM | – | > 100 µM | – | – | – | > 100 µM | – | > 100 µM | – | – |
| Cn1cnc([N+](=O)[O-])c1Sc1nnc(C(F)(F)F)n1C | – | > 100 µM | – | 34.7 µM | – | > 100 µM | – | > 100 µM | – | 38.2 µM | – | 74.4 µM | – | – | – | 45 µM | – | > 100 µM | – | – |
| Cc1ccc([Se][Se]c2ccc(C)cc2)cc1 | – | 49.7 µM | – | 22.3 µM | – | – | – | 39.6 µM | – | > 100 µM | – | > 100 µM | – | – | – | – | – | > 100 µM | > 100 µM | – |
| O=C1CCC2CCOc3ccc(O)c1c32 (configuration not stated) | – | > 100 µM | – | > 100 µM | – | > 100 µM | – | > 100 µM | – | > 100 µM | – | > 100 µM | – | – | – | > 100 µM | – | > 100 µM | > 100 µM | – |
| COc1cccc2c1C(=O)c1c(O)c3c(c(O)c1C2=O)C[C@@](O)(/C(C)=N\O)C[C@@H]3OC1CC(N)C(O)C(C)O1 (some centres not stated) | – | 49.2 µM | – | 7.31 µM | – | 19.5 µM | – | 2.29 µM | – | 1.55 µM | – | 37.2 µM | – | – | – | 2.97 µM | – | 7.52 µM | 4.76 µM | – |
| O=C(/C=C/c1ccc(Cl)cc1)c1ccncc1 | – | > 100 µM | – | > 100 µM | – | > 100 µM | – | > 100 µM | – | 60.3 µM | – | > 100 µM | – | – | – | > 100 µM | – | > 100 µM | 88.8 µM | – |
| O=C(O/N=C1/CCCC/C1=C\c1ccccc1)c1ccc(Cl)cc1 | – | > 100 µM | – | > 100 µM | – | > 100 µM | – | > 100 µM | – | – | – | > 100 µM | – | – | – | > 100 µM | – | > 100 µM | > 100 µM | – |
| CC1=N/C(=C\c2ccc([N+](=O)[O-])cc2)C(=O)O1 | – | > 100 µM | – | > 100 µM | – | > 100 µM | – | > 100 µM | – | > 100 µM | – | > 100 µM | – | – | – | – | – | – | > 100 µM | – |
| CCOC(=O)C1(C(=O)OCC)CC=C(C)CC12C(=O)Nc1ccccc12 (configuration not stated) | – | – | – | > 100 µM | – | > 100 µM | – | > 100 µM | – | > 100 µM | – | > 100 µM | – | – | – | – | – | > 100 µM | – | – |
| CC1=C(c2cc(C(=O)Nc3cccc(C(F)(F)F)c3)nc(NC#N)n2)Sc2ccccc2N1 | – | > 100 µM | – | > 100 µM | – | > 100 µM | – | > 100 µM | – | > 100 µM | – | > 100 µM | – | – | – | > 100 µM | – | > 100 µM | > 100 µM | – |
| CCCCC#Cc1cccc(=O)o1 | 20.8 µM | > 100 µM | 15.3 µM | > 100 µM | 12.4 µM | > 100 µM | 3.71 µM | 26.6 µM | 3.62 µM | > 100 µM | > 100 µM | > 100 µM | 15 µM | > 100 µM | – | – | > 100 µM | > 100 µM | > 100 µM | 44.3 µM |
| CN(C)CCNC(=O)c1cccc2c1nc(-c1ccccn1)c1ccccc12 | – | 22.7 µM | – | 39.7 µM | – | 65.2 µM | – | 28.7 µM | – | – | – | – | – | – | – | – | – | – | 29.2 µM | – |
| O=C1c2ccccc2C2(O)Oc3cccc(O)c3C12O (configuration not stated) | – | > 100 µM | – | > 100 µM | – | > 100 µM | – | > 100 µM | – | > 100 µM | – | > 100 µM | – | – | – | > 100 µM | – | > 100 µM | – | – |
| C=CCNC(=S)OCCCCCCCCCC | – | 24.8 µM | – | – | – | 39.6 µM | – | 30.5 µM | – | 34.6 µM | – | 24.1 µM | – | – | – | 78.3 µM | – | – | 29.1 µM | – |
| COc1ccc(-c2[nH]ncc2-c2cc(OC)c(OC)c(OC)c2)cc1 | < 0.01 µM | 11.2 µM | < 0.01 µM | 0.901 µM | – | – | < 0.01 µM | 0.0551 µM | 0.0308 µM | 4.66 µM | – | – | < 0.01 µM | < 0.01 µM | < 0.01 µM | 19.5 µM | < 0.0148 µM | 34.8 µM | 17.8 µM | < 0.01 µM |
| Cc1nn(C)c(=S)n(C)c1=O | – | 0.753 µM | – | 1.42 µM | – | 44.9 µM | – | – | – | > 100 µM | – | 26.2 µM | – | – | – | – | – | > 100 µM | 7.33 µM | – |
| CCCCCCCCCC(=O)N[C@H]1CCc2cc(OC)c(OC)c(OC)c2-c2ccc(SC)c(=O)cc21 | 0.0168 µM | 44.2 µM | – | 0.0788 µM | – | 9.55 µM | – | 0.0826 µM | – | > 100 µM | – | 25.5 µM | – | – | – | – | 0.619 µM | – | 0.0551 µM | – |
| N#Cc1nc(Nc2ccc([N+](=O)[O-])cc2)sc1N | – | > 59.7 µM | – | 75 µM | – | > 100 µM | – | 12.7 µM | – | > 82 µM | – | > 77 µM | – | – | – | 6.85 µM | – | > 86.3 µM | – | – |

Source: PubChem BioAssay (NCI)
